Data as given in ChEMBL document CHEMBL1147101, “Development and persistence of antimicrobial resistance in Pseudomonas aeruginosa: a longitudinal observation in mechanically ventilated patients” (Antimicrob Agents Chemother, 2007).
The source made the active and inactive calls.

Key:
Format in all cases: functional, organism-based
Conditions in all cases: Trachea
[1] = system: Pseudomonas aeruginosa; test: Antimicrobial activity against Pseudomonas aeruginosa 9B5 tracheal isolates from mechanically ventilated chronic respiratory insufficiency patient
[2] = system: Pseudomonas aeruginosa; test: Antimicrobial activity against Pseudomonas aeruginosa 65.38-1 tracheal isolates from mechanically ventilated tuberculosis patient
[3] = system: Pseudomonas aeruginosa; test: Antimicrobial activity against Pseudomonas aeruginosa 2A5 tracheal isolates from mechanically ventilated tuberculosis patient
[4] = system: Pseudomonas aeruginosa; test: Antimicrobial activity against Pseudomonas aeruginosa 29G8 tracheal isolates from mechanically ventilated chronic respiratory insufficiency patient
[5] = system: Pseudomonas aeruginosa; test: Antimicrobial activity against Pseudomonas aeruginosa 65.68-2 tracheal isolates from mechanically ventilated tuberculosis patient
[6] = system: Pseudomonas aeruginosa; test: Antimicrobial activity against Pseudomonas aeruginosa 9B2 tracheal isolates from mechanically ventilated chronic respiratory insufficiency patient
[7] = system: Pseudomonas aeruginosa; test: Antimicrobial activity against Pseudomonas aeruginosa 65.68-3 tracheal isolates from mechanically ventilated tuberculosis patient
[8] = system: Pseudomonas aeruginosa; test: Antimicrobial activity against Pseudomonas aeruginosa 2C1 tracheal isolates from mechanically ventilated tuberculosis patient
[9] = system: Pseudomonas aeruginosa; test: Antimicrobial activity against Pseudomonas aeruginosa 12A3 tracheal isolates from mechanically ventilated chronic respiratory insufficiency patient
[10] = system: Pseudomonas aeruginosa; test: Antimicrobial activity against Pseudomonas aeruginosa 2A9 tracheal isolates from mechanically ventilated tuberculosis patient
[11] = system: Pseudomonas aeruginosa; test: Antimicrobial activity against Pseudomonas aeruginosa 3D1 tracheal isolates from mechanically ventilated chronic respiratory insufficiency patient
[12] = system: Pseudomonas aeruginosa; test: Antimicrobial activity against Pseudomonas aeruginosa 5H6 tracheal isolates from mechanically ventilated chronic respiratory insufficiency patient
[13] = system: Pseudomonas aeruginosa; test: Antimicrobial activity against Pseudomonas aeruginosa 5G3 tracheal isolates from mechanically ventilated chronic respiratory insufficiency patient
[14] = system: Pseudomonas aeruginosa; test: Antimicrobial activity against Pseudomonas aeruginosa 65.33-2 tracheal isolates from mechanically ventilated tuberculosis patient
[15] = system: Pseudomonas aeruginosa; test: Antimicrobial activity against Pseudomonas aeruginosa 19E9 tracheal isolates from mechanically ventilated chronic respiratory insufficiency patient
[16] = system: Pseudomonas aeruginosa; test: Antimicrobial activity against Pseudomonas aeruginosa 24G1 tracheal isolates from mechanically ventilated chronic respiratory insufficiency patient
[17] = system: Pseudomonas aeruginosa; test: Antimicrobial activity against Pseudomonas aeruginosa 2A5 tracheal isolates from mechanically ventilated chronic respiratory insufficiency patient
[18] = system: Pseudomonas aeruginosa; test: Antimicrobial activity against Pseudomonas aeruginosa 2F6 tracheal isolates from mechanically ventilated tuberculosis patient
[19] = system: Pseudomonas aeruginosa; test: Antimicrobial activity against Pseudomonas aeruginosa 3D10 tracheal isolates from mechanically ventilated chronic respiratory insufficiency patient
[20] = system: Pseudomonas aeruginosa; test: Antimicrobial activity against Pseudomonas aeruginosa 9A3 tracheal isolates from mechanically ventilated chronic respiratory insufficiency patient
[21] = system: Pseudomonas aeruginosa; test: Antimicrobial activity against Pseudomonas aeruginosa 15H5 tracheal isolates from mechanically ventilated chronic respiratory insufficiency patient
[22] = system: Pseudomonas aeruginosa; test: Antimicrobial activity against Pseudomonas aeruginosa 22E1 tracheal isolates from mechanically ventilated chronic respiratory insufficiency patient
[23] = system: Pseudomonas aeruginosa; test: Antimicrobial activity against Pseudomonas aeruginosa 13E1 tracheal isolates from mechanically ventilated chronic respiratory insufficiency patient
[24] = system: Pseudomonas aeruginosa; test: Antimicrobial activity against Pseudomonas aeruginosa 2A6 tracheal isolates from mechanically ventilated tuberculosis patient
[25] = system: Pseudomonas aeruginosa; test: Antimicrobial activity against Pseudomonas aeruginosa 10A9 tracheal isolates from mechanically ventilated chronic respiratory insufficiency patient
[26] = system: Pseudomonas aeruginosa; test: Antimicrobial activity against Pseudomonas aeruginosa 12A7 tracheal isolates from mechanically ventilated chronic respiratory insufficiency patient
[27] = system: Pseudomonas aeruginosa; test: Antimicrobial activity against Pseudomonas aeruginosa 10B3 tracheal isolates from mechanically ventilated chronic respiratory insufficiency patient
[28] = system: Pseudomonas aeruginosa; test: Antimicrobial activity against Pseudomonas aeruginosa 16D5 tracheal isolates from mechanically ventilated chronic respiratory insufficiency patient
[29] = system: Pseudomonas aeruginosa; test: Antimicrobial activity against Pseudomonas aeruginosa 29G6 tracheal isolates from mechanically ventilated chronic respiratory insufficiency patient
[30] = system: Pseudomonas aeruginosa; test: Antimicrobial activity against Pseudomonas aeruginosa 1A9 tracheal isolates from mechanically ventilated tuberculosis patient
[31] = system: Pseudomonas aeruginosa; test: Antimicrobial activity against Pseudomonas aeruginosa 29F6 tracheal isolates from mechanically ventilated chronic respiratory insufficiency patient
[32] = system: Pseudomonas aeruginosa; test: Antimicrobial activity against Pseudomonas aeruginosa 65.33-4 tracheal isolates from mechanically ventilated tuberculosis patient
[33] = system: Pseudomonas aeruginosa; test: Antimicrobial activity against Pseudomonas aeruginosa 10A6 tracheal isolates from mechanically ventilated chronic respiratory insufficiency patient
[34] = system: Pseudomonas aeruginosa; test: Antimicrobial activity against Pseudomonas aeruginosa 9A10 tracheal isolates from mechanically ventilated chronic respiratory insufficiency patient
[35] = system: Pseudomonas aeruginosa; test: Antimicrobial activity against Pseudomonas aeruginosa 65.36-1 tracheal isolates from mechanically ventilated tuberculosis patient
[36] = system: Pseudomonas aeruginosa; test: Antimicrobial activity against Pseudomonas aeruginosa 19E2 tracheal isolates from mechanically ventilated chronic respiratory insufficiency patient
[37] = system: Pseudomonas aeruginosa; test: Antimicrobial activity against Pseudomonas aeruginosa 19B6 tracheal isolates from mechanically ventilated chronic respiratory insufficiency patient
[38] = system: Pseudomonas aeruginosa; test: Antimicrobial activity against Pseudomonas aeruginosa 19D9 tracheal isolates from mechanically ventilated chronic respiratory insufficiency patient
[39] = system: Pseudomonas aeruginosa; test: Antimicrobial activity against Pseudomonas aeruginosa 8A12 tracheal isolates from mechanically ventilated chronic respiratory insufficiency patient
[40] = system: Pseudomonas aeruginosa; test: Antimicrobial activity against Pseudomonas aeruginosa 29G7 tracheal isolates from mechanically ventilated chronic respiratory insufficiency patient
[41] = system: Pseudomonas aeruginosa; test: Antimicrobial activity against Pseudomonas aeruginosa 15G2 tracheal isolates from mechanically ventilated chronic respiratory insufficiency patient
[42] = system: Pseudomonas aeruginosa; test: Antimicrobial activity against Pseudomonas aeruginosa 12B2 tracheal isolates from mechanically ventilated chronic respiratory insufficiency patient
[43] = system: Pseudomonas aeruginosa; test: Antimicrobial activity against Pseudomonas aeruginosa 10B1 tracheal isolates from mechanically ventilated chronic respiratory insufficiency patient
[44] = system: Pseudomonas aeruginosa; test: Antimicrobial activity against Pseudomonas aeruginosa 5F8 tracheal isolates from mechanically ventilated chronic respiratory insufficiency patient
[45] = system: Pseudomonas aeruginosa; test: Antimicrobial activity against Pseudomonas aeruginosa 9A1 tracheal isolates from mechanically ventilated chronic respiratory insufficiency patient
[46] = system: Pseudomonas aeruginosa; test: Antimicrobial activity against Pseudomonas aeruginosa 2A7 tracheal isolates from mechanically ventilated tuberculosis patient
[47] = system: Pseudomonas aeruginosa; test: Antimicrobial activity against Pseudomonas aeruginosa 1B9 tracheal isolates from mechanically ventilated tuberculosis patient
[48] = system: Pseudomonas aeruginosa; test: Antimicrobial activity against Pseudomonas aeruginosa 65.38-3 tracheal isolates from mechanically ventilated tuberculosis patient
[49] = system: Pseudomonas aeruginosa; test: Antimicrobial activity against Pseudomonas aeruginosa 8B11 tracheal isolates from mechanically ventilated chronic respiratory insufficiency patient
[50] = system: Pseudomonas aeruginosa; test: Antimicrobial activity against Pseudomonas aeruginosa 22C5 tracheal isolates from mechanically ventilated chronic respiratory insufficiency patient
[51] = system: Pseudomonas aeruginosa; test: Antimicrobial activity against Pseudomonas aeruginosa 65.33-1 tracheal isolates from mechanically ventilated tuberculosis patient
[52] = system: Pseudomonas aeruginosa; test: Antimicrobial activity against Pseudomonas aeruginosa 2A2 tracheal isolates from mechanically ventilated tuberculosis patient
[53] = system: Pseudomonas aeruginosa; test: Antimicrobial activity against Pseudomonas aeruginosa 65.68-1 tracheal isolates from mechanically ventilated tuberculosis patient
[54] = system: Pseudomonas aeruginosa; test: Antimicrobial activity against Pseudomonas aeruginosa 65.18-4 tracheal isolates from mechanically ventilated tuberculosis patient
[55] = system: Pseudomonas aeruginosa; test: Antimicrobial activity against Pseudomonas aeruginosa 24E5 tracheal isolates from mechanically ventilated chronic respiratory insufficiency patient
[56] = system: Pseudomonas aeruginosa; test: Antimicrobial activity against Pseudomonas aeruginosa 3B1 tracheal isolates from mechanically ventilated tuberculosis patient
[57] = system: Pseudomonas aeruginosa; test: Antimicrobial activity against Pseudomonas aeruginosa P21.23 tracheal isolates from mechanically ventilated tuberculosis patient
[58] = system: Pseudomonas aeruginosa; test: Antimicrobial activity against Pseudomonas aeruginosa 2C2 tracheal isolates from mechanically ventilated tuberculosis patient
[59] = system: Pseudomonas aeruginosa; test: Antimicrobial activity against Pseudomonas aeruginosa P21.21 tracheal isolates from mechanically ventilated tuberculosis patient

Measured: Activity

GENTAMICIN
inactive: [2] | [5] | [7] | [8] | [10] | [18] | [24] | [30] | [35] | [46] | [47] | [48]
not listed: [51] | [52] | [53] | [54] | [55] | [56] | [57] | [58] | [59]
active: all other assays above

NCC[C@H](O)C(=O)N[C@@H]1C[C@H](N)[C@@H](O[C@H]2O[C@H](CN)[C@@H](O)[C@H](O)[C@H]2O)[C@H](O)[C@H]1O[C@H]1O[C@H](CO)[C@@H](O)[C@H](N)[C@H]1O
inactive: [2] | [8] | [10] | [18] | [24] | [46] | [47] | [48]
not listed: [3] | [14] | [30] | [32] | [35]
active: all other assays above
